Patent US20250034207A1, “PEPTIDES AND PEPTIDE CONJUGATES FOR TREATING MENTAL DISORDERS” (Kyoto University, priority 2016, published 2025)
No end group written: not given here.

Tested on: ddY mice
Assay: Tail suspension test in mice after oral administration
Assay type: in vivo
Conditions: for Activity Rating: rating excellent, good, moderate or low from percent reduction of control immobility, 0.3 mg/kg; for % of SEQ ID NO: 1 activity: reduction of control immobility relative to SEQ ID NO:1, 0.3 mg/kg oral, average where tested more than once; for Immobility time for peptides dosed at 0.3 mg/kg as percent of control immobility time, Example 16: Example 16 (retest)
Description: The tail suspension test is an experimental method used to screen potential antidepressant drugs (Can et al., 2012, J Vis Exp., 59: e3769). In the test as implemented in the Examples, a test substance is orally administered to mice (ddY mice, males, 24˜30 g) and 30 minutes later the mice are suspended by their tails for six minutes. The amount of time that a mouse is immobile (i.e. is not displaying escape behavior) during the six minutes is measured to provide an immobility time. The administration of anti-depressant drugs such as imipramine reduces immobility time. Therefore, if a reduction of immobility time is observed when testing a test substance, it can be concluded that the test substance has anti-depressant properties. Immobility is considered a despair state, and, therefore, a reduction of immobility time also indicates an increase in motivation (i.e., that the test substance has motivation-increasing properties).

Substance	Activity Rating	% of SEQ ID NO: 1 activity	other results
AQQSY (Designed peptide) [SEQ ID NO:5]	Moderate	26.16%	Immobility time for peptides dosed at 0.3 mg/kg as percent of control immobility time, Example 3 (FIG. 3B) (0.3 mg/kg oral): 86.87% of control immobility time
AQQSYW (Designed peptide) [SEQ ID NO:41]	Low	5.32%	Immobility time for peptides dosed at 0.3 mg/kg as percent of control immobility time, Example 14 (0.3 mg/kg oral): 97.33% of control immobility time
ESFFLSSTQAQQSY (Designed peptide) [SEQ ID NO:42]	Low	−39.13%	Immobility time for peptides dosed at 0.3 mg/kg as percent of control immobility time, Example 15 (0.3 mg/kg oral): 119.64% of control immobility time
FFLSSTQAQQSYLQ (Designed peptide) [SEQ ID NO:44]	Good	33.91%	Immobility time for peptides dosed at 0.3 mg/kg as percent of control immobility time, Example 15 (0.3 mg/kg oral): 82.98% of control immobility time; Immobility time compared to control (0.3 mg/kg oral, Example 15 (FIG. 11)): decreased
LSSTQ (Designed peptide) [SEQ ID NO:4]	Good	36.80%	Immobility time for peptides dosed at 0.3 mg/kg as percent of control immobility time, Example 3 (FIG. 3B) (0.3 mg/kg oral): 81.53% of control immobility time
LSSTQAQQ (Designed peptide) [SEQ ID NO:27]	Good	46.52%	Immobility time for peptides dosed at 0.3 mg/kg as percent of control immobility time, Example 13 (0.3 mg/kg oral): 76.65% of control immobility time
LSSTQAQQS (Designed peptide) [SEQ ID NO:2]	Moderate	25.28%	Immobility time for peptides dosed at 0.3 mg/kg as percent of control immobility time, Example 3 (FIG. 3A) (0.3 mg/kg oral): 87.31% of control immobility time
LSSTQAQQSF (Designed peptide) [SEQ ID NO:7]	Excellent	115.46%	Immobility time for peptides dosed at 0.3 mg/kg as percent of control immobility time, Example 6 (0.3 mg/kg oral): 42.05% of control immobility time
LSSTQAQQSW (Designed peptide) [SEQ ID NO:6]	Excellent	122.71%	Immobility time for peptides dosed at 0.3 mg/kg as percent of control immobility time, Example 6 (0.3 mg/kg oral): 38.41% of control immobility time
LSSTQAQQSY (Designed peptide) [SEQ ID NO:1]	Excellent	100%	Immobility time for peptides dosed at 0.3 mg/kg as percent of control immobility time, Example 1 (0.3 mg/kg oral, Example 1): 44.13% of control immobility time; Immobility time for peptides dosed at 0.3 mg/kg as percent of control immobility time, Example 3 (FIG. 3A) (0.3 mg/kg oral): 42.41% of control immobility time; Immobility time for peptides dosed at 0.3 mg/kg as percent of control immobility time, Example 3 (FIG. 3B) (0.3 mg/kg oral): 64.04% of control immobility time
LSSTQAQQSY-NH2 [SEQ ID NO:36, C-terminal amidated peptide conjugate]	Excellent	89.12%	Immobility time for peptides dosed at 0.3 mg/kg as percent of control immobility time, Example 6 (0.3 mg/kg oral): 55.27% of control immobility time
LSSTQAQQSYLQGF (Designed peptide) [SEQ ID NO:43]	Low	−19.33%	Immobility time for peptides dosed at 0.3 mg/kg as percent of control immobility time, Example 15 (0.3 mg/kg oral): 109.70% of control immobility time
LSSTQAQQSYW (Designed peptide) [SEQ ID NO:37]	Excellent	97.25%	Immobility time for peptides dosed at 0.3 mg/kg as percent of control immobility time, Example 14 (0.3 mg/kg oral): 39.08% of control immobility time; Immobility time for peptides dosed at 0.3 mg/kg as percent of control immobility time, Example 16 (0.3 mg/kg oral): 58.54% of control immobility time
SSTQAQQS (Designed peptide) [SEQ ID NO:28]	Excellent	82.07%	Immobility time for peptides dosed at 0.3 mg/kg as percent of control immobility time, Example 13 (0.3 mg/kg oral): 60.34% of control immobility time; Immobility time for peptides dosed at 0.3 mg/kg as percent of control immobility time, Example 16 (0.3 mg/kg oral): 57.29% of control immobility time
SSTQAQQSY (Designed peptide) [SEQ ID NO:3]	Excellent	64.81%	Immobility time for peptides dosed at 0.3 mg/kg as percent of control immobility time, Example 3 (FIG. 3A) (0.3 mg/kg oral): 67.47% of control immobility time
STQAQQSY (Designed peptide) [SEQ ID NO:29]	Good	50.93%	Immobility time for peptides dosed at 0.3 mg/kg as percent of control immobility time, Example 13 (0.3 mg/kg oral): 74.44% of control immobility time
WLSSTQ (Designed peptide) [SEQ ID NO:40]	Good	56.36%	Immobility time for peptides dosed at 0.3 mg/kg as percent of control immobility time, Example 14 (0.3 mg/kg oral): 55.34% of control immobility time; Immobility time for peptides dosed at 0.3 mg/kg as percent of control immobility time, Example 16 (0.3 mg/kg oral): 88.09% of control immobility time
WLSSTQAQQSY (Designed peptide) [SEQ ID NO:38]	Good	55.25%	Immobility time for peptides dosed at 0.3 mg/kg as percent of control immobility time, Example 14 (0.3 mg/kg oral): 72.27% of control immobility time
WLSSTQAQQSYW (Designed peptide) [SEQ ID NO:39]	Moderate	18.05%	Immobility time for peptides dosed at 0.3 mg/kg as percent of control immobility time, Example 14 (0.3 mg/kg oral): 90.94% of control immobility time
